How the values were obtained:
[1] = biological target: ΔN28-CofB; test: Isothermal titration calorimetry, interaction with ΔN28-CofB; assay type: binding, enterotoxigenic Escherichia coli (ETEC); details: ITC; for Kd: 25° C., 20 mM Tris-HCl (pH 8.0), 150 mM NaCl, ΔN28-CofB in terms of trimer, read-out: dissociation constant Kd value; for binding affinity to ΔN28-CofB compared with the binding affinity between CofJ and ΔN28-CofB: stronger than CofJ
Method: The expression and purification methods were carried out according to past papers (Fukakusa, S, et al. Acta Cryst. 2012, D68, 1418-1429; Kawahara, K, et al. J. Mol. Biol, 2016, 428, 1209-1226).
Interaction analysis was performed using CofB, CofJ and ΔN24-CofJ prepared by the above methods. An isothermal titration calorimeter Microcal iTC 200 (manufactured by GE Healthcare) was used for analysis of the interaction between the secretory protein CofJ and ΔN28-CofB. A 0.59 mM CofJ solution was charged in a titration syringe and a 28.5 μM (in terms of trimer) ΔN28-CofB solution was charged in a measuring cell, respectively, and the interaction of them was evaluated by directly observing heat changes that occur upon dropping the CofJ solution into the ΔN28-CofB solution. Titration conditions were such that the initial dropping amount was 1 μL, the dropping amount at the second and subsequent times was 2 μL, and dropping was performed 20 times in total every 120 seconds. The measurement temperature was 25° C., and the solvent was 20 mM Tris-HCl (pH 8.0), 150 mM NaCl. An exothermic change was observed by dropping the CofJ solution, which converged to the same level as the heat of dilution as the titration progressed. As a result of analysis of the obtained data using an analysis software Origin (Microcal), binding of CofJ and ΔN28-CofB was observed. The dissociation constant Kd value of both was 0.2 μM.
Next, in order to investigate the contribution to binding to pili in the N-terminal region (1 to 24) of the secretory protein CofJ, analysis of the interaction between ΔN24-CofJ and ΔN28-CofB was carried out using an isothermal titration calorimeter Microcal iTC 200 (manufactured by GE Healthcare). A 0.59 mM ΔN24-CofJ solution was charged in a titration syringe and a 28.5 μM (in terms of trimer) ΔN28-CofB solution was charged in a measuring cell, respectively, and the interaction of them was evaluated by directly observing heat changes that occur upon dropping the ΔN24-CofJ solution into the ΔN28-CofB solution. No change in caloric value due to dropping of the ΔN24-CofJ solution was observed.
Furthermore, in order to investigate the contribution to binding to pili in the N-terminal region (1 to 24) of the secretory protein CofJ, analysis of the interaction between a synthetic peptide consisting of 24 amino acid residues at the N terminal of CofJ (CofJ^1-24 peptide) purchased from Scrum Co., Ltd. and ΔN28-CofB was carried out using an isothermal titration calorimeter Microcal iTC200 (manufactured by GE Healthcare) in the same manner as described above. A 2 mM CofJ^1-24 peptide solution was charged in a titration syringe and a 33.9 μM (in terms of trimer) ΔN28-CofB solution was charged in a measuring cell, respectively, and the interaction of them was evaluated by directly observing heat changes that occur upon dropping the CofJ^1-24 peptide solution into the ΔN28-CofB solution. An exothermic change was observed by dropping the CofJ^1-24 peptide solution, which converged to the same level as the heat of dilution as the titration progressed. As a result of analysis of the obtained data using an analysis software Origin, binding of the CofJ^1-24 peptide and ΔN28-CofB was observed. The dissociation constant Kd value of both was 4 μM.
Next, in order to investigate the binding specificity of the CofJ^1-24 peptide, analysis of the interaction between a synthetic random peptide (CofJpepR) purchased from Scrum Co., Ltd. and ΔN28-CofB was carried out using an isothermal titration calorimeter Microcal iTC 200 (manufactured by GE Healthcare). A 2 mM random peptide solution was charged in a titration syringe and a 28.5 μM (in terms of trimer) ΔN28-CofB solution was charged in a measuring cell, respectively, and the interaction of them was evaluated by directly observing heat changes that occur upon dropping the […] into the ΔN28-CofB solution. No change in caloric value due to dropping of the random peptide solution was observed. […]

[2] = test system: binding of CofJ and Trx-His-ΔN28-CofB; test: Pull down assay using a Ni column, inhibition of CofB/CofJ binding; design: species or system enterotoxigenic Escherichia coli (ETEC); details: SDS-PAGE
Excerpt: To examine whether the CofJ^1-24-GCN4 inhibitory peptide is capable of inhibiting the binding of CofB and CofJ, it was confirmed in the in vitro experiment system by pull down assay using a Ni column. For experiments, ΔN28-CofB (Trx-His-ΔN28-CofB), CofJ, CofJ^1-24-GCN4, a CofJ^1-24 peptide and a peptide (CofJpepR) in which the amino acid sequence of the CofJ^1-24 peptide was randomized, with added thioredoxin tag (Trx) and His tag, were used. The sequence of CofJpepR is […] (SEQ ID NO: 22).
(§1) Solutions mixed so that the concentration of Trx-His-ΔN28-CofB was 1 μM and the concentration of CofJ^1-24-GCN4 was (0, 0.5, 1.0, 2.0, 5.0, 10.0 μM) were allowed to stand still on ice overnight. Further, CofJ was mixed so that the final concentration became 1 μM, and the mixtures were allowed to stand still on ice for 1 hour, to obtain experiment samples. Each sample was applied to a Ni column equilibrated with 20 mM Tris-HCl, 150 mM NaCl, pH 8.0, and the column was washed with 20 mM Tris-HCl, 150 mM NaCl, 15 mM Imidazole, pH 8.0. Thereafter, elution was performed with 20 mM Tris-HCl, 150 mM NaCl, 300 mM Imidazole, pH 8.0, and the eluted fraction was confirmed by SDS-PAGE.
Also for the CofJ^1-24 peptide and CofJpepR, the inhibition ability thereof was investigated by the same method. Specifically, solutions mixed so that the concentration of Trx-His-ΔN28-CofB was 1 μM and the concentration of the CofJ^1-24 peptide and CofJpepR was 1000 μM were allowed to stand still on ice overnight. Further, CofJ was mixed so that the final concentration became 1 μM, and the mixtures were allowed to stand still on ice for 1 hour, to obtain experiment samples. The pull down assay was performed in the same manner as described above. […] From this, it is considered that CofJ^1-24-GCN4 can inhibit the binding between CofB and CofJ by strongly binding with CofB by trimerizing.
In order to investigate whether the CofJ^4-16-GCN4 inhibitory peptide can inhibit the binding of CofB and CofJ, it was confirmed in the in vitro experimental system by a pull down assay using a Ni column. For the experiment, ΔN28-CofB (Trx-His-ΔN28-CofB), CofJ and CofJ^4-16-GCN4, with added thioredoxin tag (Trx) and His tag (His), were used.
as §1, with “CofJ^4-16-GCN4” for “CofJ^1-24-GCN4”, “Thereafter, elution was performed with 20 mM Tris-HCl, 150 mM NaCl, 300 mM Imidazole, pH 8.0, and the eluted fraction was confirmed by SDS-PAGE.” left out

[3] = test system: HB101 cof adhesion to Caco2 cells; test: ETEC adhesion inhibitory activity using Caco2 cells; assay type: cell-based, Escherichia coli; details: 1, 10, 100 μg/mL
Method: First, Caco2 cells were dispersed using Dulbecco's Modified Eagle's Medium (DMEM) containing 50 μg/mL gentamicin and 10% fetal bovine serum, the cell concentration was measured using a blood cell counting chamber and diluted to 3.0×10^5 cells/mL. Dilution liquid was added to a 6-well plate each in an amount of 500 μL, and culture was performed by allowing the plate to stand still in a CO2 incubator at 5% CO2 and 37° C. for 48 hours. The cultured Caco2 cells were washed with PBS twice. After washing, DMEM containing 100 μg/mL ampicillin and 1% D-mannose was filtrated by passing through a 0.22 μm filter, then, the solution was added each in an amount of 500 μL to each well.
Next, a small amount of the glycerol stock of HB101 cof was scraped off and added to LB medium containing 100 μg/mL ampicillin, and shaking culture was carried out overnight at 25° C. The culture liquid was suitably diluted and OD660 of the culture liquid was calculated using a turbidimeter. The culture liquid was serially diluted and CFU (colony forming unit) was measured. From the measured CFU, the concentration (cells/mL) of HB101 cof at OD660=1.0 was calculated. This calculated value was used to determine the concentration of HB101 cof later. […]
ETEC adhesion inhibitory activity was evaluated in the same manner as in Example 9 using CofJ^4-16-GCN4. […]

[4] = peptide 1000 μM (1000 times that of CofJ, 1 μM)
[5] = peptide premixed at a concentration not lower than that of CofJ (1 μM), 0.5-10.0 μM tested

SPSSSEGGAFTVNMPKTSTVDDIR [CofJ^1-24 peptide, reference compound]
Kd [1]: 4 µM
inhibition of the binding of CofJ and Trx-His-ΔN28-CofB [2, 4]: hardly inhibited

NPSGFDKSGSSTTRTPAMSVIVDE [CofJpepR, reference compound]
binding to ΔN28-CofB (change in caloric value) ([1]; 28.5 μM ΔN28-CofB in cell): do not bind
inhibition of the binding of CofJ and Trx-His-ΔN28-CofB [2, 4]: can not be inhibited at all

SSEGGAFTVNMPK [CofJ^4-16 peptide, reference compound]
Kd [1]: 4 µM

CofJ^4-16-GCN4: GPLG, SSEGGAFTVNMPK (SEQ ID NO: 23), linker TSGGG (SEQ ID NO: 9) and GCN4 sequence (SEQ ID NO: 6); expressed in E. coli
Kd [1]: 0.08 µM
binding affinity to ΔN28-CofB compared with the binding affinity between CofJ and ΔN28-CofB [1]: about 2.5 times
inhibition of the binding of CofJ and Trx-His-ΔN28-CofB [2, 5]: strongly inhibited
inhibition of colonization of HB101 cof to Caco2 cells [3]: inhibits colonization of HB101 cof to Caco2 cells in concentration-dependent manner

CofJ^1-24-GCN4: GPLG, CofJ 1-24 sequence (SEQ ID NO: 1), linker TSGGG (SEQ ID NO: 9) and GCN4 sequence (SEQ ID NO: 6); expressed in E. coli
Kd [1]: 0.04 µM
binding affinity to ΔN28-CofB compared with the binding affinity between CofJ and ΔN28-CofB [1]: about 5 times
inhibition of the binding of CofJ and Trx-His-ΔN28-CofB [2, 5]: strongly inhibited
inhibition of colonization of HB101 cof to Caco2 cells [3]: inhibits colonization of HB101 cof to Caco2 cells in concentration-dependent manner

Source: patent US10829522B2, “Peptide inhibiting colonization by pathogenic bacteria, and colonization inhibitor including same” (OSAKA UNIVERSITY, priority 2016, dated 2020)
